In ChEMBL document CHEMBL2057176, “Synthesis and in vitro evaluation of [18F](R)-FEPAQ: a potential PET ligand for VEGFR2” (Bioorg Med Chem Lett, 2012):
Calls of active or inactive are those of the source. The rule behind the calls is not given here.

What was measured:
[1] = target: T1, Vascular endothelial growth factor receptor 2 (Homo sapiens, UniProt P35968); assay: Binding affinity to VEGFR2 in isolated human glioblastoma at 0.18 nM after 60 mins by phosphor image autoradiographic analysis; details: tested as the 18F-labelled form
T1 sequence (P35968 whole entry): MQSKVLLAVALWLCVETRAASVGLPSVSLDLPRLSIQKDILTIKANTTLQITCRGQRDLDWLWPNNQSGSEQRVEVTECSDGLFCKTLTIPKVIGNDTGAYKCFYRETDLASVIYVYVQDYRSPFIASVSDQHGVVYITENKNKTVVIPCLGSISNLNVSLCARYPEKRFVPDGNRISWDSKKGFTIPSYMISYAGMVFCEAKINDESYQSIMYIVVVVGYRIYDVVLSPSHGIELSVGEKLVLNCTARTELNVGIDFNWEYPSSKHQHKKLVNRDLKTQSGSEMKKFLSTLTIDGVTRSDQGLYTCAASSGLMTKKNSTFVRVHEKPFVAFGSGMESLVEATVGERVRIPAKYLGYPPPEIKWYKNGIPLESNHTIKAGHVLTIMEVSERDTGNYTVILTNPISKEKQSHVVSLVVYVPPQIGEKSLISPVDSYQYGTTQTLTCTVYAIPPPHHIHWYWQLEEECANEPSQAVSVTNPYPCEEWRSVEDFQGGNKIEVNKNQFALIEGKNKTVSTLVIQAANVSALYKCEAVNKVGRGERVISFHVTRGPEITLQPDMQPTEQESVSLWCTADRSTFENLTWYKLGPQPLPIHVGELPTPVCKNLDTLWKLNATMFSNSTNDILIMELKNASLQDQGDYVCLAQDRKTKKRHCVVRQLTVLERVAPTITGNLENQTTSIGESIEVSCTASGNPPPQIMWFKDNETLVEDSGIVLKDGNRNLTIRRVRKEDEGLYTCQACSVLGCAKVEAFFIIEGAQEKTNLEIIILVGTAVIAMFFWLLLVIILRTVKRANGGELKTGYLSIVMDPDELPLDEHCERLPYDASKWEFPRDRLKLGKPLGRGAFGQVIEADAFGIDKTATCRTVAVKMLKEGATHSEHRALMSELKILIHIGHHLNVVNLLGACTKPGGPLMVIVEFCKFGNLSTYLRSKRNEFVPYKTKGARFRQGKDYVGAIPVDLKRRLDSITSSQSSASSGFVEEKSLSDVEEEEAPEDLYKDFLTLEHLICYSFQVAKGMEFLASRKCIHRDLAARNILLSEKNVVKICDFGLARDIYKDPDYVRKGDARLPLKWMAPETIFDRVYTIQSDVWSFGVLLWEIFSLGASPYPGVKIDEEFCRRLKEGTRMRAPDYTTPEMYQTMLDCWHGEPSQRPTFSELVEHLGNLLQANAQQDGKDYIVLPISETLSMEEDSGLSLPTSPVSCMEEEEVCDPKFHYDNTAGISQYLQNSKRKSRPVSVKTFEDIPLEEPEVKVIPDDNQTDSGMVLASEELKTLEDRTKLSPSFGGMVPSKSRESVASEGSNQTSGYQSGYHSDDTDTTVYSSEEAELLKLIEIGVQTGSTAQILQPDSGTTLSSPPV

[2] = target: T1, Vascular endothelial growth factor receptor 2; assay: Binding affinity to VEGFR2 in isolated human glioblastoma at 0.18 nM after 60 mins by phosphor image autoradiographic analysis in presence of ZM-323881; details: tested as the 18F-labelled form
[3] = target: T1, Vascular endothelial growth factor receptor 2; assay: Inhibition of human VEGFR2 by fluorescence-based electrophoretic mobility-shift assay
[4] = target: T1, Vascular endothelial growth factor receptor 2; assay: Binding affinity to VEGFR2 in isolated human glioblastoma at 0.18 nM after 60 mins by phosphor image autoradiographic analysis in presence of (R)-PAQ; details: tested as the 18F-labelled form

COc1cc2c(Nc3ccc(Br)cc3F)ncnc2cc1OC[C@@H]1CCCN(CCF)C1
Activity [1]: Active
Activity [2]: inactive
IC50 [3]: 40 nM
Activity [4]: inactive
